Assay [1] has as its system Lzm-S-induced carotid artery vasodilation. Kind of assay: Prevention of Lzm-S-induced vasodilation by pretreatment agents in the carotid artery ring preparation. Also on record: species or system canine. The conditions noted are these: for contraction after Lzm-S relative to the value post-L-NMMA treatment: L-NMMA 10^−3 mol/L treated group (n=8); for blockade of Lzm-S-induced vasodilation: comparison of hydroxyl radical scavengers with peroxidase.

In assay [2] the test system is phenylephrine contracted canine carotid artery ring preparation. Kind of assay: Contraction force and vasorelaxation in phenylephrine contracted canine carotid artery ring preparation. The settings on record: for contraction after Lzm-S relative to the value pre-Lzm-S treatment: non-L-NMMA treated group (n=12), human Lzm-S 6.7×10^−7 mol/L; for contraction after Lzm-S relative to the pre-Lzm-S contraction: non-indomethacin treated group (n=4).

Setting [3] is: pretreatment with the agent, human Lzm-S 6.7×10^−7 mol/L, phenylephrine contracted ring.

“Also recorded” adds a separate entry of the source. Where two headings read alike, the source gives them in different places.

Turning to `Nc1ccncc1` [4-aminopyridine], in assay [1] (setting [3]), the “inhibition of Lzm-S-induced vasodilation (words)” value (“inhibition” for short) is recorded as “none of these inhibitors prevented Lzm-S's vasodilatory response”.
`O=C(O)CCC/C=C\C/C=C\C/C=C\C/C=C\CCCCCO` [20-hydroxyeicosatetraenoic acid]: in assay [1] (setting [3]), the “inhibition” value is “none of these inhibitors prevented Lzm-S's vasodilatory response”.
For the molecule `CCN(CC)C(=S)S` [DECTA, diethyldithiocarbamic acid], the “inhibition” value in assay [1] (setting [3]) was “neither DECTA (10^−2 mol/L), deferoxamine methanesulfonate salt (10^−2 mol/L), nor the reducing agents N-acetylcysteine (10^−3 mol/L), ascorbic acid (10^−4 mol/L), and reduced-glutathione (10^−3 mol/L) were found to inhibit Lzm-S-induced vasodilation”.
As for `OO` [H2O2, hydrogen peroxide], the “effect of H2O2 on force” value in assay [2] (10^−4 mol/L) is given as “progressive vasorelaxation over time”; in assay [2] (higher concentrations, 10^−3 to 10^−1 mol/L), “an initial increase in force that was followed by vasorelaxation; also recorded: vasoconstriction that was rapidly followed by vasodilation”; in assay [2] (lower concentrations, FIG. 8), “vasorelaxation was produced”. Moreover, the “effect of H2O2 on precontracted force” value in assay [2] (10^−5 mol/L) is “minimal effect”.
`[Cl-].[K+]` [KCl]: the “inhibition” value in assay [1] (setting [3]) is recorded as “none of these inhibitors prevented Lzm-S's vasodilatory response”.
On to `CNC(=N)NCCC[C@H](N)C(=O)O` [L-NMMA, N^G-monomethyl-L-arginine], for which the “contraction after Lzm-S relative to the value post-L-NMMA treatment” value is on record as 37±22% in assay [1] (human Lzm-S 6.7×10^−7 mol/L, 5 minutes); 13±16% in assay [1] (human Lzm-S 6.7×10^−7 mol/L, 15 minutes); −0.3±1% in assay [1] (human Lzm-S 6.7×10^−7 mol/L, 30 minutes, minus = below resting force). The “inhibition” value in assay [1] (setting [3]) was “did not inhibit lysozyme induced vasodilation; also recorded: did not Prevent Vasodilation”. The “contraction with L-NMMA treatment” value in assay [2] (L-NMMA 10^−3 mol/L added after phenylephrine plateau, before Lzm-S) was found to be 8.1±3.5 grams.
Regarding `O=C1C(Nc2ccccc2)=CC(=O)c2ncccc21` [LY 83583, 6-anilino-5,8-quinolinequinone], in assay [1] (setting [3]), the “inhibition” value was “prevented lysozyme induced vasdodilation; also recorded: found to inhibit Lzm-S's effect”.
`CC(=O)N[C@@H](CS)C(=O)O` [N-acetylcysteine]: in assay [1] (setting [3]), the “inhibition” value is “neither DECTA (10^−2 mol/L), deferoxamine methanesulfonate salt (10^−2 mol/L), nor the reducing agents N-acetylcysteine (10^−3 mol/L), ascorbic acid (10^−4 mol/L), and reduced-glutathione (10^−3 mol/L) were found to inhibit Lzm-S-induced vasodilation”.
For `O=c1onc2cnc3ccccc3n12` [ODQ, 1H-[1,2,4]oxadiazolo[4,3-a]quinoxalin-1-one], the “inhibition” value in assay [1] (setting [3]) is on record as “prevented lysozyme induced vasdodilation; also recorded: found to inhibit Lzm-S's effect”.
Turning to `Nc1ncnc2c1ncn2C1CCCO1` (centres unmarked) [SQ 22, 536], the “inhibition” value in assay [1] (setting [3]) was “none of these inhibitors prevented Lzm-S's vasodilatory response”.
Consider `O=C1O[C@H]([C@@H](O)CO)C(O)=C1O` [ascorbic acid], for which the “inhibition” value in assay [1] (setting [3]) was “neither DECTA (10^−2 mol/L), deferoxamine methanesulfonate salt (10^−2 mol/L), nor the reducing agents N-acetylcysteine (10^−3 mol/L), ascorbic acid (10^−4 mol/L), and reduced-glutathione (10^−3 mol/L) were found to inhibit Lzm-S-induced vasodilation”.
Take `CN1[C@@H]2CC[C@H]1C[C@@H](OC(=O)C(CO)c1ccccc1)C2` (some centres unmarked) [atropine]: the “inhibition” value in assay [1] (setting [3]) is reported as “none of these inhibitors prevented Lzm-S's vasodilatory response”.
Same read-out and setting: the result for `CC(=O)N[C@H]1[C@H](O[C@H]2[C@H](O)[C@@H](NC(C)=O)C(O)O[C@@H]2CO)O[C@H](CO)[C@@H](O)[C@@H]1O` (some centres unmarked) [chitobiose, N,N′-diacetylchitobiose] reads “did not block Lzm-S's vasodilatory response”; that for `CC(=O)N[C@H]1[C@H](O[C@H]2[C@H](O)[C@@H](NC(C)=O)C(O)O[C@@H]2CO)O[C@H](CO)[C@@H](O[C@@H]2O[C@H](CO)[C@@H](O)[C@H](O)[C@H]2NC(C)=O)[C@@H]1O` (some centres unmarked) [chitotriose, N,N′,N″-triacetylchitotriose], “did not block Lzm-S's vasodilatory response”; that for `CN(C)CCOC(c1ccccc1)c1ccccc1.Cl` [dipheniramine hydrochloride], “none of these inhibitors prevented Lzm-S's vasodilatory response”.
`Oc1ccc(O)cc1` [hydroquinone]: the “blockade of Lzm-S-induced vasodilation” value in assay [1] is given as 60%. The “inhibition” value is on record as “inhibited the vasodilatory effect of lysozyme” in assay [1] (setting [3]) and “inhibitory effect” in assay [1] (pretreatment with the agent, human Lzm-S 6.7×10^−7 mol/L, phenylephrine contracted ring, listed as hydroxyquinone).
As for `OC[C@@H](O)[C@@H](O)[C@H](O)[C@H](O)CO` [mannitol], the “blockade of Lzm-S-induced vasodilation” value in assay [1] is recorded as 60%. Also, the “inhibition” value in assay [1] (setting [3]) is “inhibited the vasodilatory effect of lysozyme; also recorded: inhibitory effect”.
Turning to `CN(C)c1ccc2nc3ccc(=[N+](C)C)cc-3sc2c1` [methylene blue], the “inhibition” value in assay [1] (setting [3]) is listed as “inhibited the effect of lysozyme; also recorded: prevented lysozyme induced vasdodilation; also recorded: found to inhibit Lzm-S's effect”.
Turning to `CNC[C@H](O)c1cccc(O)c1` [phenylephrine], the phenylephrine response stood at 7.1±0.5 grams in assay [2] (endothelial denuded preparation) and 6.7±0.7 grams in assay [2] (endothelial intact preparation). In assay [2] (ethanol treated control group, baseline before ethanol), the phenylephrine contraction alone is listed as 8.2±2.6 grams. For the same molecule, the “mean increase in contraction from resting force with phenylephrine” value in assay [2] (indomethacin treated group) was determined as 7.5±1.4 grams. Further, the “mean increase in force from resting tension with phenylephrine” value in assay [2] (non-indomethacin time control group) was found to be 6.9±2.7 grams. For the same molecule, the “mean increase in resting force caused by phenylephrine” value in assay [2] (phenylephrine 10^−5 mol/L, L-NMMA treated group) turned out to be 6.2±2.4 grams. In assay [2] (phenylephrine 10^−5 mol/L, non-L-NMMA treated group), the “mean increase in contraction from resting force caused by phenylephrine” value is reported as 7.1±2.1 grams.
For `CC(C)NCC(O)COc1cccc2ccccc12` (centres unmarked) [propranolol], the “inhibition” value in assay [1] (setting [3]) was “none of these inhibitors prevented Lzm-S's vasodilatory response”.
As for `N[C@@H](CCC(=O)N[C@@H](CS)C(=O)NCC(=O)O)C(=O)O` [reduced-glutathione, reduced glutathione], the “inhibition” value in assay [1] (setting [3]) is “neither DECTA (10^−2 mol/L), deferoxamine methanesulfonate salt (10^−2 mol/L), nor the reducing agents N-acetylcysteine (10^−3 mol/L), ascorbic acid (10^−4 mol/L), and reduced-glutathione (10^−3 mol/L) were found to inhibit Lzm-S-induced vasodilation”.
As to `CC[N+](CC)(CC)CC` [tetraethylammonium], the “inhibition” value in assay [1] is reported as “none of these inhibitors prevented Lzm-S's vasodilatory response”.
Regarding charybdotoxin, the “inhibition” value in assay [1] (setting [3]) is listed as “none of these inhibitors prevented Lzm-S's vasodilatory response”.
Still for that read-out and setting: under deferoxamine methanesulfonate salt stands “neither DECTA (10^−2 mol/L), deferoxamine methanesulfonate salt (10^−2 mol/L), nor the reducing agents N-acetylcysteine (10^−3 mol/L), ascorbic acid (10^−4 mol/L), and reduced-glutathione (10^−3 mol/L) were found to inhibit Lzm-S-induced vasodilation”.
For the molecule “guanosine 3′,5′-cyclic monophosphorothioate, β-phenyl-1,N^2-etheno-8-bromo-Rp-isomer, sodium salt [PKG inhibitor]”, the “inhibition” value was “prevented lysozyme induced vasdodilation” in assay [1] (pretreatment with the agent, human Lzm-S 6.7×10^−7 mol/L, phenylephrine contracted ring, listed as protein kinase G inhibitor, sodium salt) and “found to inhibit Lzm-S's effect” in assay [1] (pretreatment with the agent, human Lzm-S 6.7×10^−7 mol/L, phenylephrine contracted ring, sodium salt).
Turning to “iberiotoxin: used for inhibition of potassium channels (QFTDVDCSVSKECWSVCKDLFGVDRGKCMGKKCRCYQ; Iberiotoxin; UniProt P24663 1-37, looked up)”, the “inhibition” value in assay [1] (setting [3]) is “none of these inhibitors prevented Lzm-S's vasodilatory response”.

B1: human Lzm-S: Human lysozyme purchased from EMD Biosciences; used in all experiments after the initial ones (protein, UniProt P61626 19-148, looked up)
Lysozyme C: KVFERCELARTLKRLGMDGYRGISLANWMCLAKWESGYNTRATNYNAGDRSTDYGIFQINSRYWCNDGKTPGAVNACHLSCSALLQDNIADAVACAKRVVRDPQGIRAWVAWRNRCQNRDVRQYVQGCGV
For B1, the “vasorelaxation in the carotid artery preparation (mean values)” value in assay [2] (FIG. 2 mean values) is given as “significant vasorelaxation”. For the same molecule, the “contraction after Lzm-S, % of the phenylephrine plateau” value came out at 79±18% in assay [2] (endothelium denuded preparation (n=4), 5 minutes); 58±21% in assay [2] (endothelium denuded preparation (n=4), 15 minutes); 54±20% in assay [2] (endothelium denuded preparation (n=4), 30 minutes); 64±25% in assay [2] (endothelium intact preparation (n=4), 5 minutes); 53±33% in assay [2] (endothelium intact preparation (n=4), 15 minutes); 76±21% in assay [2] (endothelium intact preparation (n=4), 30 minutes). For the same molecule, the “constriction after lysozyme relative to the phenylephrine value” in assay [2] (example traces FIG. 1, phenylephrine constricted carotid ring) was “about 40%”. The “vasodilatory effect” value in assay [2] (human Lzm-S 3.3×10^−7 mol/L) was “minimal vasodilatory effect”. In addition, the “reduction in contraction” value in assay [2] (human Lzm-S higher concentration (6.7×10^−7 mol/L)) is “nearly eliminated the increase in force induced by phenylephrine”. For the same molecule, the “contraction after Lzm-S relative to the value pre-Lzm-S treatment” value in assay [2] (5 minutes) is reported as 23±24%; in assay [2] (15 minutes), 8±27%; in assay [2] (30 minutes), 2±34%. The entries for the “contraction after Lzm-S relative to the pre-Lzm-S contraction” value in assay [2] (5 minutes), in assay [2] (15 minutes) and in assay [2] (30 minutes) were 71±16%, 45±19% and 19±15%, respectively.

(Values after patent US20110014174A1, “Lysozyme, A Novel Vasodilator of Sepsis that can be inhibited by a Peroxidase and Hydroxyl Radical Scavengers” (UNIVERSITY OF MANITOBA, priority 2007, published 2011).)
